Data from patent US20250206758A1, “SUBSTITUTED BRIDGED RING INHIBITOR, PREPARATION METHOD THEREFOR AND APPLICATION THEREOF” (SUZHOU ZELGEN BIOPHARMACEUTICALS CO., LTD., priority 2022, published 2025).

Legend:
[1] = test system: ERK phosphorylation in KRAS^G12D mutant cells (GP2D); test: GP2D ERK phosphorylation inhibition experiment; format: cell-based; details: 1 hour compound, hEGF 10 minutes
Procedure: (§1) KRAS^G12D mutant cells (such as GP2D, AGS, etc.) were seeded in a 384-well plate and cultured overnight in a 37° C., 5% CO2 incubator.
(§2) 200 nL of diluted compound was added with Echo 500 to a final DMSO concentration of 0.5%, and cultured in a 37° C., 5% CO2 incubator for 1 hour. Then hEGF was added for acting for 10 minutes.
(§3) The culture medium was discarded, and then cell fixative was added to fix the cells.
(§4) The cells were washed once with PBS, and then incubated with cold 100% methanol.
(§5) Methanol was removed and the cells were washed with PBS.
(§6) PBS was removed, and each well was added with Li-Cor blocking buffer, and blocked at room temperature for 1 hr.
(§7) The blocking solution was removed, and primary antibody mixture was added to each well, and incubated at […] 4° C. overnight.
(§8) The primary antibody mixture was removed, and the cells were washed by adding PBST for 3 times.
(§9) Secondary antibody mixture was added and incubated at room temperature in the dark for 45 min.
(§10) The secondary antibody mixture was removed, and the cells were washed by adding PBST for 3 times. Finally, PBST was suctioned out, and the plate was centrifuged upside down at 1000 rpm for 1 min.
(§11) The plate was read by Odyssey CLx.

[2] = test system: ERK phosphorylation in KRAS^G12D mutant cells (AGS); test: AGS ERK phosphorylation inhibition experiment; format: cell-based; details: Homo sapiens, 1 hour compound, hEGF 10 minutes
Procedure: as §1, §2, §3, §4, §5, §6, §7, §8, §9, §10, §11

GP2D = test: Cell proliferation inhibition, GP2D (CellTiter-Glo 3D, 7 days); format: cell-based; details: 168 h
In short: (§12)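 Cells exposed to compound (final DMSO 0.5%) in duplicate for 7 days at 37 °C, 5% CO2, then CellTiter-Glo 3D added with 20 min shaking and 2 h dark incubation before luminescence. Inhibition normalized to medium and blank controls; IC50, minimum and maximum inhibition from curve fits.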

AsPC-1 = test: Cell proliferation inhibition, AsPC-1 (CellTiter-Glo 3D, 7 days); format: cell-based; details: Homo sapiens, ASPC1, 168 h; AsPC-1, 7 days
In short: as §12

AGS = test: Cell proliferation inhibition, AGS (CellTiter-Glo 3D, 7 days); format: cell-based; details: Homo sapiens, 168 h
Procedure: • (a) Resuscitating cells in T75 cell culture flask: • (b) When the cell confluence reaches 80-90%, subculturing the cells.
The diluted test compound was added to a 384-well cell culture plate with a nanoliter pipetting system, and duplicate wells were set up. An equal volume of culture medium was added to the positive control group; and an equal volume of DMSO was added to the negative control group, then centrifugation was conducted at 1000 rpm for 1 min at room temperature.
Cells were inoculated into a) 384-well culture plate, with an equal volume of cells added to the negative control group, and only an equal volume of culture medium added to the positive control group. The plate was centrifuged at 1000 rpm for 1 min at room temperature, and the final DMSO concentration of the compound was 0.5% at last. The plate was placed in a 37° C., 5% CO2 constant temperature incubator for 7 days.
20 μL/well of CellTiter-Glo® 3D to b) was added to 384-well cell culture plate, and the plate was shook at 320 rpm for 20 min in the dark, and incubated at room temperature in the dark for 2 hrs.
The luminescence value was read using an Envision multi-functional microplate reader.
The inhibition rate (IR) of the test compound was calculated using the following formula: IR (%)=(1−(RLU compound−RLU blank control)/(RLU meidum control−RLU blank control))*100%. The inhibition rates of different concentrations of compounds were calculated in Excel, and then the inhibition curves were plotted and the related parameters (including the minimum inhibition rate, maximum inhibition rate and IC50) were calculated using GraphPad Prism software.

[3] = Pharmacokinetic test evaluation in mice, oral; details: male ICR mice, oral 30 mg/kg, plasma
Procedure: Male ICR mice, weighing 22-24 g, were fasted overnight and orally administered with 30 mg/kg of a solution of the compound of the present invention or the control compound [10% DMSO+60% PEG400+30% aqueous solution]. Blood was collected at 0.25, 0.5, 1.0, 2.0, 4.0, 6.0, 8.0, 12.0 and 24 h after administration of the compound of the present invention respectively, and the concentration of the compound of the present invention or the control compound in plasma was determined by LC/MS/MS.

Row | Compound | IC50 [1] [nM] | IC50 [2] [nM] | further results
1 | C#Cc1c(F)ccc2cc(O)cc(-c3ncc4c(N5C[C@H]6CC[C@@H](C5)N6)nc(OC[C@]56CCCN5[C@H](COC)CC6)nc4c3F)c12 [Example 1 Isomer 1A, 4-(4-((1R,5S)-3,8-diazabicyclo[3.2.1]octan-3-yl)-8-fluoro-2-((3S,7aR)-(3-(methoxymethyl)tetrahydro-1H-pyrrolizin-7a(5H)-yl)methoxy)pyridino[4,3-d]pyrimidin-7-yl)-5-ethynyl-6-fluoronaphthalen-2-ol] | 2.6 | 9.67 | –
2 | C#Cc1c(F)ccc2cc(O)cc(-c3ncc4c(N5C[C@H]6CC[C@@H](C5)N6)nc(OC[C@@]56CCCN5[C@@H](COC)CC6)nc4c3F)c12 [Example 1 Isomer 1B, 4-(4-((1R,5S)-3,8-diazabicyclo[3.2.1]octan-3-yl)-8-fluoro-2-((3R,7aS)-(3-(methoxymethyl)tetrahydro-1H-pyrrolizin-7a(5H)-yl)methoxy)pyridino[4,3-d]pyrimidin-7-yl)-5-ethynyl-6-fluoronaphthalen-2-ol] | 2.1 | 3.76 | –
3 | C#Cc1c(F)ccc2cc(O)cc(-c3ncc4c(N5C[C@H]6CC[C@@H](C5)N6)nc(OC[C@@]56CCCN5[C@H](COC)CC6)nc4c3F)c12 [Example 1 Isomer 2B, 4-(4-((1R,5S)-3,8-diazabicyclo[3.2.1]octan-3-yl)-8-fluoro-2-((3S,7aS)-(3-(methoxymethyl)tetrahydro-1H-pyrrolizin-7a(5H)-yl)methoxy)pyridino[4,3-d]pyrimidin-7-yl)-5-ethynyl-6-fluoronaphthalen-2-ol] | – | 139 | –
4 | C#Cc1c(F)ccc2cc(O)cc(-c3ncc4c(N5CC6CCC(C5)N6)nc(OCC56CCCN5CC5(CC5)C6)nc4c3F)c12 [Example 9, 4-(4-(1R,5S)-3,8-diazabicyclo[3.2.1]octan-3-yl)-2-(dihydro-1′H,3′H-spiro[1,2′-pyrrolizin]-7a′(5′H)-yl)methoxy)-8-fluoropyridino[4,3-d]pyrimidin-7-yl)-5-ethynyl-6-fluoro-naphthalen-2-ol] | – | 8.2 | –
5 | C#Cc1c(F)ccc2cc(O)cc(-c3ncc4c(N5CC6CCC(C5)N6)nc(OC[C@@]56CCCN5C[C@H](F)C6)nc4c3F)c12 [MRTX1133, reference compound] | – | – | IC50 (GP2D): 1.28 nM; IC50 (AsPC-1): 6.77 nM; IC50 (AGS): 5.15 nM; AUC0-∞ [3]: BLOQ; AUC(0-t) [3]: BLOQ; Cmax [3]: BLOQ
